Measured values reported in PMC3499525 (PLoS ONE, 2012).
Each block holds one compound with its values, some of them ahead of it.

Key:
[1] = test system: phosphorylated p42 and p44 MAPK in PC12 cells; assay: p42/44 MAPK activation in PC12 cells (Western blot); type: cell-based, rat
Procedure: (§1) Phosphorylation of MAPK was analyzed in cell lysates and the loading of the lanes normalized to levels of non-phospho MAPK.
(§2) PC12 cells originated from rat pheochromocytoma purchased from ATCC, were grown to confluence in T75 flasks, containing DMEM (1000 mg/l glucose) and supplemented with 5% fetal calf serum (FCS), 10% horse serum, and a mixture of 1% of penicillin/streptomycin/nystatin [11]. NRVM cultures were prepared from ventricles of 1–2 day old Sprague-Dawley rats, as previously described (ethics number Il-106-11-2007). Briefly, the ventricles of the excised hearts were dissociated with 0.1% RDB, a protease isolated from fig tree extract (Institute of Biology, Nes-Ziona,Israel), and the dispersed cells were resuspended in F-10 culture medium containing 1 mM CaCl2, 100 U/mL penicillin-streptomycin, 5% FCS, 5% donor horse serum, and 25 mg of bromodeoxyuridine (5-bromo-2′-deoxyuridine, BrdU).Cell cultures were incubated at 37°C in a humid 5% CO2-95% air environment. For all experiments, cells were initially seeded in full-serum cultured media and then replaced into serum-free media containing the respective supplements.
PC12 cells or NRVM cultures were resuspended in RIPA (20 mM Tris–HCl pH 7.4, 200 mM NaCl, 1% Triton-X 100, 0.1% SDS, 0.2% sodium deoxycholate, 5 mM EDTA) containing cocktail protease inhibitors (Roche, Basel Switzerland). The lysates were precleared by centrifugation. Protein content was determined using the Bradford method (Sigma Chemical Co. St. Louis, MO, USA).Equal amounts of sample were resolved on sodium dodecyl sulfate-polyacrylamide gel electrophoresis (SDS-PAGE) and blotted onto polyvinylidenedifluoride membranes (Millipore, Billerica, MA, USA). Membranes were treated with blocking buffer (5% dry milk, 0.05% Tween 20 in TBS). Primary antibodies were diluted in the blocking buffer and incubated with membranes for 20 h at 4°C followed by incubation (1 h at room temperature) in dilutions of horseradish peroxidase-conjugated secondary antibodies in the same buffer. Following antibody incubations, membranes were washed in 0.5% Tween 20 TBS. Detection was achieved using Western blotting ECL reagent (Amersham, Pharmacia, Little Chalfort Buckinghamshire, UK). Quantification of the results was accomplished by measuring the optical density of the labeled bands from the autoradiograms, using the computerized imaging program Bio-1D (VilberLourmat Biotech. Bioprof., France). The values were normalized to β-actin intensity levels.

[2] = test system: phosphorylated p42 and p44 MAPK in neonatal rat ventricular myocytes (NRVM); assay: p42/44 MAPK activation in NRVM (Western blot); type: cell-based
Procedure: PC12 cells originated from rat pheochromocytoma purchased from ATCC, were grown to confluence in T75 flasks, containing DMEM (1000 mg/l glucose) and supplemented with 5% fetal calf serum (FCS), 10% horse serum, and a mixture of 1% of penicillin/streptomycin/nystatin [11]. NRVM cultures were prepared from ventricles of 1–2 day old Sprague-Dawley rats, as previously described (ethics number Il-106-11-2007). […]
as §1
PC12 cells or NRVM cultures were resuspended in RIPA (20 mM Tris–HCl pH 7.4, 200 mM NaCl, 1% Triton-X 100, 0.1% SDS, 0.2% sodium deoxycholate, 5 mM EDTA) containing cocktail protease inhibitors (Roche, Basel Switzerland). […] Protein content was determined using the Bradford method (Sigma Chemical Co. St. Louis, MO, USA).Equal amounts of sample were resolved on sodium dodecyl sulfate-polyacrylamide gel electrophoresis (SDS-PAGE) and blotted onto polyvinylidenedifluoride membranes (Millipore, Billerica, MA, USA). […] Quantification of the results was accomplished by measuring the optical density of the labeled bands from the autoradiograms, using the computerized imaging program Bio-1D (VilberLourmat Biotech. Bioprof., France). […]

[3] = test system: cleaved caspase 3 in NRVM; assay: Cleaved caspase 3 in serum-deprived NRVM (Western blot); type: cell-based, rat; settings: serum free medium, efaroxan 10 µM, TVP1022 20 µM
Procedure: NRVM cells were incubated in full serum medium for 24 h before replacing to serum free medium. […] A. Apoptotic nuclei were identified by TUNEL analysis. […] B. Representative Western blots and quantitative results of cleaved caspase 3 protein expression. The loading of the lanes was normalized to β-actin levels.
PC12 cells or NRVM cultures were resuspended in RIPA (20 mM Tris–HCl pH 7.4, 200 mM NaCl, 1% Triton-X 100, 0.1% SDS, 0.2% sodium deoxycholate, 5 mM EDTA) containing cocktail protease inhibitors (Roche, Basel Switzerland). The lysates were precleared by centrifugation. Protein content was determined using the Bradford method (Sigma Chemical Co. St. Louis, MO, USA).Equal amounts of sample were resolved on sodium dodecyl sulfate-polyacrylamide gel electrophoresis (SDS-PAGE) and blotted onto polyvinylidenedifluoride membranes (Millipore, Billerica, MA, USA). Membranes were treated with blocking buffer (5% dry milk, 0.05% Tween 20 in TBS). […] Quantification of the results was accomplished by measuring the optical density of the labeled bands from the autoradiograms, using the computerized imaging program Bio-1D (VilberLourmat Biotech. Bioprof., France). […]

[4] = test system: neonatal rat ventricular myocytes (NRVM); assay: Serum deprivation-induced apoptosis in NRVM (TUNEL); type: cell-based; settings: serum free medium, efaroxan 10 µM pre-incubation, TVP1022 20 µM
Procedure: as §2, with “For all experiments, cells were initially seeded in full-serum cultured media and then replaced into serum-free media containing the respective supplements.” left out
In situ DNA fragmentation was performed by the terminal deoxynucleotidyl transferase-mediated deoxyuridine triphosphate-digoxigenin nick end labeling (TUNEL). […] Quantification of the apoptotic cells was calculated as the ratio of TUNEL-positive cells to the total number of cells in the same slide.
NRVM cells were incubated in full serum medium for 24 h before replacing to serum free medium. […] B. Representative Western blots and quantitative results of cleaved caspase 3 protein expression. […]

[5] = biological target: I2 imidazoline receptor; assay: I2 imidazoline receptor binding assay ([3H]idazoxan); settings: [3H]idazoxan 2 nM, rat cerebral cortex
Excerpt: (§3) The specific ligand binding to the receptors is defined as the difference between the total binding and the nonspecific binding determined in the presence of an excess of unlabelled ligand, as described in Table 1.
(§4) The specific ligand binding to the receptors is defined as the difference between the total binding and the nonspecific binding determined in the presence of an excess of unlabelled ligand (Table 1). The IC50 values (concentration causing a half-maximal inhibition of control specific binding) and Hill coefficients (nH) were determined by non-linear regression analysis of the competition curves generated with mean replicate values using Hill equation curve fitting [Y = D+((A – D)/(1+(C/C50) nH)], where Y = specific binding, D = minimum specific binding, A = maximum specific binding, C = compound concentration, C50 = IC50, and nH = slope factor). This analysis was performed using SigmaPlot ® 4.0 for Windows ® (© 1997 by SPSS Inc.). The inhibition constants (Ki) were calculated using the Cheng Prusoffequation [Ki = IC50/(1+(L/KD)], where L = concentration of radioligand in the assay, and KD = affinity of the radioligand for the receptor).

[6] = biological target: I1 imidazoline receptor; assay: I1 imidazoline receptor binding assay ([3H]clonidine); settings: [3H]clonidine 15 nM, bovine adrenal medulla glands
Excerpt: as §3, §4

Structure (SMILES): COc1cccc(-c2cc(=O)c3ccccc3o2)c1N [PD98059]
effect on TVP1022-induced increase of MAPK phosphorylation ([1]; PD98059 30 µM pretreatment 30 min, TVP1022 20 µM): significantly blocked
effect on TVP1022-induced ERK phosphorylation ([2]; PD98059 30 µM pre-incubation 30 min): abolished

Structure (SMILES): CCC1(C2=NCCN2)Cc2ccccc2O1 (stereo not drawn) [efaroxan]
effect on TVP1022-induced MAPK activation ([1]; efaroxan 10 µM pre-incubation 30 min, TVP1022 20 µM): abolished
effect on moxonidine-induced phosphorylation of p42 and p44 MAPK ([1]; efaroxan 10 µM pre-incubation, moxonidine 1 µM): abolished
effect on TVP1022-suppressive effects on caspase 3 [3]: markedly reversed
effect on TVP1022-mediated increases in p42 and p44 MAPK phosphorylation ([2]; efaroxan 10 µM pre-incubation, TVP1022 10 and 20 µM): antagonized
effect on TVP1022-induced cytoprotective effect (TUNEL) [4]: markedly prevented

IC50 ([5]; 30 min 22°C): 16 nM
Ki ([5]; Cheng Prusoff equation): 10 nM
Structure (SMILES): c1ccc2c(c1)OCC(C1=NCCN1)O2 (stereo not drawn) [idazoxan, reference compound]

Structure (SMILES): COc1nc(C)nc(Cl)c1N=C1NCCN1 [monoxidine, moxonidine]
effect on phosphorylation of p42 and p44 MAPK ([1]; 1 µM, 30 min): increased

IC50 ([6]; 60 min 22°C): 160 nM
Ki ([6]; Cheng Prusoff equation): 84 nM
Structure (SMILES): C1COC(NC(C2CC2)C2CC2)=N1 [rilmenidine, reference compound]
